{"source": "patent US12252712B2", "about": "“Use of engineered liver tissue constructs for modeling liver disorders” (Organovo, Inc., priority 2017, dated 2025)", "type_in_all_cases": "cell-based, human", "key": {"[1]": {"tested_on": "immune competent bioprinted liver tissue constructs", "assay": "NASH induction in bioprinted liver tissue constructs, histology (H&E, trichrome, desmin/α-SMA, CK18)", "experimental": "Kupffer cells (KCs) were added to the parenchymal region in the bioprinted liver tissue construct of Example 6.\nSeparate high density bioinks comprising parenchymal cells (100% cellular paste, generated via compaction having human hepatocyte cells and human Kupffer cells) or nonparenchymal cells (150e6 cells/mL of endothelial cells and hepatic stellate cells formulated in hydrogel) were prepared and loaded into separate heads of the NovoGen Bioprinter™ Instrument within a standard biosafety cabinet. A computer script was then executed to deposit the bioinks in a two-compartment planar geometry (2 mm^2×0.5 mm) onto the membranes of standard 24-well 0.4 μm transwell culture inserts (Corning, Tewksbury, MA USA) via continuous deposition microextrusion with the non-parenchymal cells comprising the border regions of each compartment and the parenchymal cells filling each compartment.\nHere, the liver tissue construct having KCs was treated with 100 μg/ml of LPS and 500 uM palmitic acid daily for 21 days. LPS was used to activate the KCs in order to initiate inflammation. In turn, activated KCs release factors that activate hepatic stellate cells, which initiate fibrosis. […] Untreated tissues with and without KCs were used as controls."}, "[2]": {"tested_on": "bioprinted liver tissue construct", "assay": "Steatosis induction in bioprinted liver tissue constructs (H&E, PLIN-5, Oil Red O)", "source_text": "3D bioprinted liver tissues comprised of cryopreserved primary human hepatocytes (Life Technologies, Carlsbad, CA, USA), hepatic stellate cells (ScienCell; Carlsbad, CA, USA), and HUVEC cells (Becton Dickinson; Tewksbury, MA, USA) were bioprinted directly into 24-well Transwell plates (FIG. 20A) using the Organovo NovoGen Bioprinter Instrument (Organovo, San Diego, CA, USA).\nBriefly, hepatic stellate cells and HUVEC cells were propagated per the manufacturer's instructions prior to tissue fabrication. Cryopreserved hepatocytes were thawed and prepared for use per the manufacturer's instructions. Separate high density bioinks comprising parenchymal cells (100% cellular paste, generated via compaction having hepatocyte cells) or nonparenchymal cells (150e6 cells/mL of endothelial cells and hepatic stellate cells formulated in hydrogel) were prepared and loaded into separate heads of the NovoGen Bioprinter Instrument within a standard biosafety cabinet. A computer script was then executed to deposit the bioinks in a two-compartment planar geometry (2 mm^2×0.5 mm) onto the membranes of standard 24-well 0.4 μm transwell culture inserts (Corning, Tewksbury, MA USA) via continuous deposition microextrusion with the non-parenchymal cells comprising the border regions of each compartment and the parenchymal cells filling each compartment. Following fabrication, the tissues were fed daily with 600 μL of 3D Liver Tissue Media, consisting of DMEM supplemented with Primary Hepatocyte Maintenance Supplements (Life Technologies, Carlsbad, CA, USA) and EGM-2 (Lonza, Basel, Switzerland), and incubated at 37° C. under humidified atmospheric conditions supplemented with 5% CO2. Tissues were allowed to mature in culture for at least three days following fabrication prior to initiation of experimentation, and were substantially free of pre-formed scaffold at the time of use. For the one month timecourse, tissues were fed daily for a total of 28 days post-fabrication.\nThe bioprinted liver tissue construct of Example 6 was treated with nutrient-mediated accumulation to induce a steatosis phenotype. Specifically, to induce steatosis, a first liver tissue construct was treated with palmitic acid (PA) of varying concentrations (200 uM PA or 500 uM PA) daily for 3 weeks in the presence of high glucose media (DMEM-HG). A second liver tissue construct was treated with a 5% and 10% lipid mix of oleic acid (OC) to palmitic acid (PA) at a ratio of 2:1 daily for 3 weeks in the presence of high glucose media (DMEM-HG). Optionally, insulin or genipin (1 uM or 5 uM) can be used to stimulate fatty acid uptake into hepatocytes and enhance the fatty phenotype. […]\nThe technical challenge is to make a 3D, bioprinted liver tissue construct having the disorder without adversely affecting hepatocyte function or tissue health (albumin, LOH activity, ALT), which most closely recapitulates the benign nature of steatosis commonly observed in clinical steatosis. Tissue health were assessed at 7 day intervals using biochemical assays that measure hepatocellular function (i.e., albumin) and injury (i.e., LOH and ALT) with n≥5 per treatment group. Greater than 5% fatty infiltrate into hepatocytes is considered steatotic; therefore, morphometric and biochemical assays were conducted to quantify hepatic lipid content. Tissue morphology and extracellular matrix (ECM) deposition were assessed using H&E and Trichrome staining, respectively, at 7 day intervals. […]"}, "[3]": {"tested_on": "bioprinted liver tissue constructs", "assay": "Caspase cleaved CK18 fragments (apoptosis) in bioprinted liver tissue constructs"}, "[4]": {"tested_on": "bioprinted hepatic stellate cell tissues", "assay": "Stimulation of bioprinted hepatic stellate cell tissues with TGF-β1", "method": "Cylindrical bio-ink comprising relevant heterogeneous (i.e., polytypic) cell populations were prepared. Physiologically-relevant populations (e.g., hepatic stellate cells (hSC) and human aortic endothelial cells (EC)) of cells were combined at specific ratios to generate proper bio-ink. Cells were maintained and propagated under standard laboratory conditions and cells were cultured in media either purchased from the same vendor as the cells, or media comprising components typically found in the primary literature to be conducive to standard cell culture practices for those particular cell types. Cell processing for bio-ink preparation was as follows: briefly, cells were liberated from standard tissue culture plastic by washing with cation-free phosphate buffered saline (PBS) and then exposed to 0.1-0.05% trypsin (Invitrogen). Liberated cells were then washed in serum-containing media, collected, counted, and combined in an appropriate ratio for the stimulation assay or experiment being conducted, and pelleted by centrifugation. Supernatant was then removed and the cell pellet was aspirated into a glass microcapillary, which was then submerged in complete media for approximately 15 to 20 minutes. This cylindrical bio-ink structure was then extruded into a non cell-adherent hydrogel mold, containing linear channels and held for 2 to 18 hours. Cylindrical bio-ink containing hSC: EC was then used to fabricate bioprinted tissue constructs and maintained and/or matured in a humidified chamber. Tissue segments were fabricated with initial dimensions of 1.25 mm×8 mm×0.25 mm (W×L×H). […]\nThe bioprinted neotissues were then submerged in serum-containing complete cell culture media and placed in a standard humidified chamber, supplemented with 5% CO2 for maturation. […] The bioprinted tissues were evaluated for characteristics such as, but not limited to for tissue morphology, cell organization, extracellular matrix production, cell proliferation, cell viability, and construct integrity. […]"}, "[5]": {"tested_on": "bioprinted liver tissues", "assay": "Drug safety: alanine transferase (ALT) in culture medium of bioprinted liver tissues", "details": "diseased (NASH-induced with 12.5 mM fructose and 500 uM PA) tissue treated with OCA versus non-diseased tissue", "method": "The assessment of drug safety was also investigated using the bioprinted liver tissue constructs. Non-diseased (vehicle-treated) or diseased (NASH-induced with 12.5 mM fructose and 500 uM PA) bioprinted liver tissues were treated with OCA, followed by measurement of alanine transferase (ALT) in the culture medium, a liver enzyme elevated with hepatocellular injury. […] Significance was determined by One-way ANOVA with Dunnets Multiple Comparisons Test, with the increase in ALT levels for diseased tissue following OCA treatment having a P<0.0001 as compared to diseased tissue without OCA treatment. This provides a proof of concept for application of the NASH model in assessment of differential toxicity."}, "[6]": {"tested_on": "bioprinted liver tissue construct with Kupffer cells", "assay": "Inflammatory cytokine release from bioprinted liver tissue constructs", "details": "co-treatment of LPS at 1 ug/mL with NASH induction, 14 days (FIG. 33)", "method": "Tissue health were assessed at 7 day intervals using biochemical assays on spent media that measure hepatocellular function as outlined in Aim 1 (n≥5/group). Histological endpoints used to assess tissue morphology and composition (H&E, CD31, Desmin, E-cadherin, Albumin), ECM deposition (trichrome), hepatic stellate cell activation (desmin, a-smooth muscle actin ratio), lipid vacuoles (perilipin) and lipid content (Oil red 0) were measured at weekly intervals. In order to determine baseline cytokine production in response to lipid treatment, inflammatory cytokine release were measured at 7 day intervals via chemiluminescence with the V-Plex Pro-Inflammatory Panel (Meso Scale Discovery, Rockville, MD), which measures TNF-α, IL-113, IL-6, IL-8, IL-4, IL-2, IL-13, IL-12p70, IL-10, and interferon-y (IFN-y)."}}}
{"molecule": "O=C(CO)[C@@H](O)[C@H](O)[C@H](O)CO", "note": "[fructose]", "values": [{"measurement": "fibrosis (TCM)", "setting": "[1]; 14 days, fructose 20 mM, OA or OA:PA 0.5 mM, vs controls (FIG. 32)", "value": "increased fibrosis"}, {"measurement": "fibrosis (TCM)", "setting": "[1]; 21 days, fructose 12.5 mM, PA 0.5 mM, vs controls (FIG. 31)", "value": "increased fibrosis"}]}
{"molecule": "CCCCCCCCCCCCCCCC(=O)O", "note": "[palmitic acid]", "values": [{"measurement": "steatotic phenotype (incidence and size of lipid droplets, PLIN 5 staining)", "setting": "[2]; 200 μM and 500 μM, daily for 21 days, vs untreated controls", "value": "induces a steatotic phenotype"}, {"measurement": "lipid accumulation fold change (Oil Red O, Image J)", "setting": "[2]; 21 days, 500 μM vs 200 μM (FIG. 25B)", "value": "greater accumulation of lipid droplets"}, {"measurement": "lipid accumulation (Oil Red O, morphometric quantification)", "setting": "[2]; 21 days, 200 and 500 uM, vs controls (FIG. 22)", "value": "significant dose-dependent increase in lipid accumulation"}, {"measurement": "fibrosis (TCM)", "setting": "[1]; 7 days, 1 mM (FIG. 28A)", "value": "increased incidence"}, {"measurement": "putative ballooned hepatocytes (H&E)", "setting": "[1]; 7 days, 1 mM (FIG. 28A)", "value": "increased incidence of putative ballooned hepatocytes"}, {"measurement": "caspase cleaved cytokine (CK) 18 fragments", "setting": "[3]; 7 days, 1 mM, vs all other FFA treatments and untreated controls (FIG. 28B)", "value": "significantly higher levels"}, {"measurement": "cytotoxicity", "setting": "[3]; FIG. 28(B)", "value": "increased cytotoxicity"}]}
{"molecule": "TGF-β1: cytokine used to elicit a tissue-specific response", "values": [{"measurement": "cell density (Trichrome)", "setting": "[4]; 0-50 ng/mL (FIG. 15)", "value": "dramatic decreases in cell density"}, {"measurement": "collagen deposition and construct size (Trichrome)", "setting": "[4]; 0-50 ng/mL (FIG. 15)", "value": "increases in collagen deposition and construct size"}, {"measurement": "tissue outgrowth formation (gross observation)", "setting": "[4]; increasing concentrations 0, 1, 10, 50 ng/mL (FIG. 15)", "value": "increases in tissue outgrowth formation"}]}
{"molecule": "CC[C@H]1[C@@H](O)[C@@H]2[C@H](CC[C@]3(C)[C@@H]([C@H](C)CCC(=O)O)CC[C@@H]23)[C@@]2(C)CC[C@@H](O)C[C@@H]12", "note": "[OCA, Obeticholic Acid]", "values": [{"measurement": "alanine transferase (ALT) in the culture medium", "setting": "[5]", "value": "increased ALT"}]}
{"molecule": "lipopolysaccharide [LPS]", "values": [{"measurement": "putative hepatocellular ballooning", "setting": "[1]; 21 days of PA and fructose (12.5 mM) with constitutive 10 ug/mL treatment, vs controls (FIG. 43)", "value": "also observed"}, {"measurement": "fibrosis and hepatocellular ballooning", "setting": "[1]; 21 days of PA and fructose (12.5 mM) with constitutive 100 ug/mL LPS (FIG. 43)", "value": "high degree of fibrosis with putative hepatocellular ballooning"}, {"measurement": "cytokine levels (IL-10, IL-1β, TNF-α, IL-6)", "setting": "[6]", "value": "significantly increased above NASH induction only"}]}
{"molecule": "COC(=O)C1=CO[C@@H](O)[C@@H]2C(CO)=CC[C@H]12", "note": "[Genipin]", "values": [{"measurement": "lipid accumulation fold change (Oil Red O, Image J)", "setting": "[2]; 21 days, 5 μM Genipin added to 500 μM PA, vs 500 μM PA alone", "value": "did not further increase lipid accumulation"}]}
{"molecule": "CCCCCCCC/C=C\\CCCCCCCC(=O)O", "note": "[OA, Oleic Acid]", "values": [{"measurement": "lipid droplet (LD) size", "setting": "[2]; 14 days of treatment (FIG. 27)", "value": "larger sizes of LD's"}, {"measurement": "fibrosis (TCM)", "setting": "[1]; 7 days, 1 mM (FIG. 28A)", "value": "less fibrosis"}, {"measurement": "macrovesicular steatosis (H&E)", "setting": "[1]; 7 days, 1 mM (FIG. 28A)", "value": "increased incidence of macrovesicular steatosis"}]}
